Results: PMC4412466 (Supramolecular chemistry, 2014)

Experiments:
[1] = cited from earlier work
[2] = Phase solubility diagram of container with excess albendazole; type: physicochemical; details: 50 mM NaOAc buffer, pD 4.74
[3] = Phase solubility diagram of container with excess camptothecin; type: physicochemical; details: 0.01 M DCl, pD 2.0
[4] = Phase solubility diagram of container with excess cinnarizine; type: physicochemical; details: 50 mM NaOAc buffer, pD 4.74

affinity toward albendazole (slope of phase solubility diagram), CB[7] versus 1 [2]: comparable
affinity toward camptothecin (slope of phase solubility diagram), CB[7] versus 1 [3]: comparable affinity
maximum [cinnarizine] obtained with container [4]: 13.7 mM
Substance: Cucurbit[7]uril [CB[7]]
solubility in water [1]: 20 to 30 mM
